The compounds below were run against T1, MAGE-A11:PCF11 interaction (GST-MAGE-A11 MHD and FAM-PCF11_4) (Homo sapiens, UniProt P43364) (assay: TR-FRET dose response test of compounds for disruption of MAGE-A11:PCF11 binding). Settings: Dose response TR-FRET screening of nine scaffold groups against MAGE-A11:PCF11; read-out: consensus IC50.
T1 construct: GST-MAGE-A11 MHD (human MAGE-A11 MHD amino acid 218-429); made in house; host or cells: E. coli BL21(DE3)
T1 sequence (P43364 218-429): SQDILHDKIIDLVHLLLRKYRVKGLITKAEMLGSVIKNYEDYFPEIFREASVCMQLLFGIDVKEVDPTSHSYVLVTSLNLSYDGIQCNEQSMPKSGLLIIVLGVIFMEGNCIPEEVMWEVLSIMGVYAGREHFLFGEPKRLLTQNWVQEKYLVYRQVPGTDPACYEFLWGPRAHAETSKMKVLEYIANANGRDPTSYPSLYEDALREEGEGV
In short: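 Competition of compounds against binding of FAM-PCF11_4 peptide to GST-MAGE-A11 MHD, detected with Tb-anti-GST, in 50 mM Tris pH 7.5, 20 mM MgCl2, 0.1 mg/ml BSA, 1 mM DTT. 90 min at ~25 °C; 520/490 nm emission ratio (340 nm excitation) fitted for IC50.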

Row | SMILES | IC50 [µM]
1 | FC(F)(F)c1cc(-c2ccc3c(NCCCNCc4cccc5c4OCO5)ccnc3c2)cc(C(F)(F)F)c1 [SJ000311272-1] | 9.02
2 | FC(F)(F)c1ccc(-c2ccc3c(NCCCNCc4cccc5c4OCO5)ccnc3c2)cc1 [SJ000311280-1] | 15.7
3 | COc1ccc(F)cc1CNCCCNc1ccnc2cc(-c3ccc(C(F)(F)F)cc3)ccc12 [SJ000311281-1] | 13.4
4 | COc1ccc(F)cc1CNCCCNc1ccnc2cc(Oc3ccc(Cl)cc3)ccc12 [SJ000311229-1] | 19.7
5 | COc1cccc(CNCCCNc2ccnc3cc(-c4cccc5ccccc45)ccc23)c1O [SJ000311275-1] | 16
6 | COc1cccc(CNCCCNc2ccnc3cc(-c4ccc(F)cc4)ccc23)c1O [SJ000311239-1] | 33.3
7 | c1cc(CNCCCNc2ccnc3cc(CC4CCCCC4)ccc23)c2c(c1)OCO2 [SJ000311252-1] | 16
8 | c1cc(CNCCCNc2ccnc3cc(-c4cccc5ccccc45)ccc23)c2c(c1)OCO2 [SJ000311276-1] | 31.2
9 | COc1cccc(CNCCCNc2ccnc3cc(Cc4ccc(F)cc4)ccc23)c1O [SJ000311243-1] | 43.6
10 | COc1cccc(CNCCCNc2ccnc3cc(CC(C)C)ccc23)c1O [SJ000311259-1] | 68.5
11 | Fc1ccc(Oc2ccc3c(NCCCNCc4cccc5c4OCO5)ccnc3c2)cc1 [SJ000311224-1] | 59.6
12 | Clc1ccc(Oc2ccc3c(NCCCNCc4cccc5c4OCO5)ccnc3c2)cc1 [SJ000311228-1] | 17.7
13 | COc1ccc(F)cc1CNCCCNc1ccnc2cc(-c3cc(C(F)(F)F)cc(C(F)(F)F)c3)ccc12 [SJ000311273-1] | 7.69
14 | CS(=O)(=O)c1ccc(C2=C(c3ccccc3)C(=O)OC2)cc1 [SJ000285362-5] | 67.6
15 | COc1ccc(Oc2ccc3c(NCCCNCc4cc(F)ccc4OC)ccnc3c2)cc1 [SJ000311221-1] | 46.4
16 | CC(C)(C)c1ccc(O)c(CNCCCNc2ccnc3cc(Cl)ccc23)c1 [SJ000311193-1] | 30.4

Second part, the compound after the results:

Row | IC50 [µM] | SMILES
17 | 11 | Clc1cccc(Cl)c1Cc1ccc2c(NCCCNCc3cccc4c3OCO4)ccnc2c1 [SJ000311316-1]
18 | 4.62 | COc1ccc(F)cc1CNCCCNc1ccnc2cc(-c3ccc(C(C)(C)C)cc3)ccc12 [SJ000311289-1]
19 | 62.3 | Cc1cc(C)c(C2Nc3ccccc3C(=O)N2CCCN2CCOCC2)cc1C (stereo not drawn) [SJ000803761-1]
20 | 68.1 | Cc1cc(C)c(CNCCCNc2ccnc3cc(Cl)ccc23)c(C)c1 [SJ000520911-2]
21 | 54.8 | CCCCCCCCOc1ccc(NC2=C(N)C(=O)c3ccccc3C2=O)cc1 [SJ000562629-1]
22 | 68 | O=C1c2ccccc2NC(c2ccc(F)c(Br)c2)N1CCCN1CCOCC1 (stereo not drawn) [SJ000803764-1]
23 | 28.2 | COc1ccc(F)cc1CNCCCNc1ccnc2cc(-c3ccccc3)ccc12 [SJ000311285-1]
24 | 67.1 | Clc1ccc2c(NCCCNCc3ccc4[nH]ccc4c3)ccnc2c1 [SJ000520909-2]
25 | 24.1 | COc1cccc(CNCCCNc2ccnc3cc(-c4ccccc4)ccc23)c1O [SJ000311283-1]
26 | 18.3 | COc1ccc(F)cc1CNCCCNc1ccnc2cc(Cc3ccccc3)ccc12 [SJ000311309-1]
27 | 34.9 | Clc1ccc2c(NCCCNCc3ccc(-c4ccccc4)cc3)ccnc2c1 [SJ000523064-1]
28 | 66 | N#Cc1ccc(Cc2ccc3c(NCCCNCc4cccc5c4OCO5)ccnc3c2)cc1 [SJ000311304-1]
29 | > 70 | C=CCn1c(=O)c2c(nc(-c3ccccc3)n2C)n(C)c1=O [SJ000832270-1]
30 | 22.1 | COc1ccc(F)cc1CNCCCNc1ccnc2cc(Cc3cccc(C(F)(F)F)c3)ccc12 [SJ000311301-2]
31 | 22.2 | c1ccc(-c2ccc3c(NCCCNCc4cccc5c4OCO5)ccnc3c2)cc1 [SJ000311284-1]
32 | 67.8 | O=C1c2ccccc2NC(c2ccc(F)cc2F)N1CCCN1CCOCC1 (stereo not drawn) [SJ000795275-1]
33 | 31.3 | COc1cc(Cc2ccc3c(NCCCNCc4cccc5c4OCO5)ccnc3c2)cc(OC)c1 [SJ000311312-1]
34 | 11.8 | Cc1ccc(S(=O)(=O)c2nc(-c3ccccc3C)oc2N2CC(C)OC(C)C2)cc1 (stereo not drawn) [SJ000329041-1]
35 | 58.4 | O=C1c2ccccc2NC(c2ccc(F)c(F)c2)N1CCCN1CCOCC1 (stereo not drawn) [SJ000803757-1]

Same assay, conditions: Supplementary Data 3, 59 quinoline compounds; read-out: TR-FRET IC50

Row | SMILES | IC50 [µM]
36 | FC(F)(F)Oc1ccc(CN(CCCCNc2ccnc3cc(Cl)ccc23)Cc2ccccc2)cc1 [SJ000520451-1, FC(F)(F)Oc1ccc(CN(CCCCNc2ccnc3cc(Cl)ccc23)Cc4ccccc4)cc1] | > 70
37 | CC(C)(C)c1ccc(Oc2ccc3c(NCCCNCc4ccco4)ccnc3c2)cc1 [SJ000311234-1, CC(C)(C)c1ccc(Oc2ccc3c(NCCCNCc4occc4)ccnc3c2)cc1] | 32.1
38 | c1coc(CNCCCNc2ccnc3cc(CC4CCCCC4)ccc23)c1 [SJ000311250-1, C(CNCc1occc1)CNc2ccnc3cc(CC4CCCCC4)ccc23] | 54.9

Results, then the compound that gave them:

Row | IC50 [µM] | SMILES
39 | > 70 | Cc1cc(C)c(CN(CCCNc2ccnc3cc(Cl)ccc23)Cc2ccccc2)c(C)c1 [SJ000361169-2, Cc1cc(C)c(CN(CCCNc2ccnc3cc(Cl)ccc23)Cc4ccccc4)c(C)c1]
40 | > 70 | Clc1cccc(-c2ccc(CNCCCNc3ccnc4cc(Cl)ccc34)o2)c1 [SJ000523069-1, Clc1cccc(c1)c2oc(CNCCCNc3ccnc4cc(Cl)ccc34)cc2]
41 | 33.2 | CCCN(CCCNc1ccnc2cc(C(F)(F)F)ccc12)Cc1ccc2[nH]ccc2c1 [SJ000575171-1, CCCN(CCCNc1ccnc2cc(ccc12)C(F)(F)F)Cc3ccc4[nH]ccc4c3]
42 | > 70 | CCCN(CCCNc1ccnc2cc(C(F)(F)F)ccc12)Cc1ccc(CC)cc1 [SJ000521009-2, CCCN(CCCNc1ccnc2cc(ccc12)C(F)(F)F)Cc3ccc(CC)cc3]
43 | > 70 | CCCN(CCCNc1ccnc2cc(Cl)ccc12)Cc1ccc(-c2ccccc2)cc1 [SJ000523039-1, CCCN(CCCNc1ccnc2cc(Cl)ccc12)Cc3ccc(cc3)c4ccccc4]
44 | 23.4 | Clc1ccc2c(NCCCCN(Cc3ccccc3)Cc3ccc4[nH]ccc4c3)ccnc2c1 [SJ000520434-1, Clc1ccc2c(NCCCCN(Cc3ccccc3)Cc4ccc5[nH]ccc5c4)ccnc2c1]
45 | > 70 | FC(F)(F)c1ccc2c(NCCCNCc3cc4ccccc4s3)ccnc2c1 [SJ000521060-1, FC(F)(F)c1ccc2c(NCCCNCc3cc4ccccc4s3)ccnc2c1]
46 | > 70 | CCCN(CCCNc1ccnc2cc(C(F)(F)F)ccc12)CC(CC)CC [SJ000361269-1, CCCN(CCCNc1ccnc2cc(ccc12)C(F)(F)F)CC(CC)CC]
47 | > 70 | Clc1ccc2c(NCCCNCc3csc4ccccc34)ccnc2c1 [SJ000521033-1, Clc1ccc2c(NCCCNCc3csc4ccccc34)ccnc2c1]
48 | > 70 | CC(C)(C)CCN(CCCCNc1ccnc2cc(Cl)ccc12)Cc1ccccc1 [SJ000357537-2, CC(C)(C)CCN(CCCCNc1ccnc2cc(Cl)ccc12)Cc3ccccc3]
49 | > 70 | Clc1ccc2c(NCCCCN(Cc3ccccc3)Cc3csc4ccccc34)ccnc2c1 [SJ000520446-1, Clc1ccc2c(NCCCCN(Cc3ccccc3)Cc4csc5ccccc45)ccnc2c1]
50 | > 70 | CCCN(CCCNc1c2ccc(Cl)cc2nc2ccc(OC)cc12)Cc1c(Cl)ccc(Cl)c1Cl [SJ000523021-1, CCCN(CCCNc1c2ccc(Cl)cc2nc3ccc(OC)cc13)Cc4c(Cl)ccc(Cl)c4Cl]

Same assay, conditions: Supplementary Data 4; read-out: TR-FRET, IC50

Row | IC50 [µM] | SMILES
51 | 4.07 | FC(F)(F)c1ccc(-c2ccc3c(NCCCNCc4cccc5c4OCO5)ccnc3c2)cc1 [SJ000311280-01]

— PMC7529893, “Structural basis for substrate recognition and chemical inhibition of oncogenic MAGE ubiquitin ligases” (Nature Communications, 2020)
